{"source": "ChEMBL document CHEMBL3879895", "about": "“Compositions and methods for treating ocular edema, neovascularization and related diseases” (2014)", "tested_on": "Mus musculus", "assay": "Reduction of neovascular tufts in retina of rhodopsin/VEGF transgenic mouse at 3 to 10 mg/kg, sc bid administered for 7 days started on post natal day 14 measured on post natal day 21 by FITC-conjugated GSA-lectin staining-based fluorescence microscopy", "assay_type": "functional, organism-based", "note": "Activity calls are given as the source filed them. The calls are words filed in the database; no cut-off is given here.", "data": [{"smiles": "COC(=O)N[C@@H](Cc1ccccc1)C(=O)N[C@@H](Cc1ccc(NS(=O)(=O)O)cc1)c1csc(-c2csc(-c3cccs3)n2)n1", "values": [{"measurement": "Activity", "value": "Active"}]}]}
